System: cockroaches
Assay: biological test using the linear track olfactometer (attraction-aggregation activity)
Format: in vivo, American cockroaches
Details: Test Example 1; dose 10^2 pg; EPI=(NS-NC)/(NS+NC)
Excerpt: The method for determining the activity of the cockroach attraction-aggregation substance is not particularly limited herein, and the activity may be determined by, for example, a biological test using a linear track olfactometer (FIG. 1).
An olfactometer (linear track olfactometer) is typically an instrument used to conduct bioassays to observe the response of insects to volatiles. The instrument has a bifurcation at which air flow containing an attractant substance attracts the insect subjects (see, e.g., J. Jpn. For. Soc., 89(2), 2007, “An Olfactometer Testing the Olfactory Response of the Japanese Horntail Urocerus japonicus to Volatiles.”, 135-137, and Nogyo Kankyo Kenkyu Sosho, Vol. 17, “Nogyo Seitaikei no Hozen ni Muketa Seibutsu Kino no Katsuyo”, 108-134).
A biological test with a linear track olfactometer will be specifically described below. In FIG. 1, air suction from the top 1 of the central tube allows air to enter from the tops (2a and 2b) of the right and left tubes, thereby air flows are generated from the both sides, flowing through the horizontal tube toward the top of the central tube. The left tube is the control side, and the right tube is the sample side. Insect subjects (7 to 10 day-old larvae) are placed at the bottom 4 of the central tube. Air is then slowly suctioned from the top of the central tube with a pump (2.5 L/min). The insect subjects are allowed to freely move for 5 minutes at 25±1° C. at a relative humidity of 40 to 60% in total darkness. The numbers of the insect subjects that have moved to the control side and to the sample side are counted. The excess proportion index (EPI) is calculated by the following equation: EPI=(NS−NC)/(NS+NC) (where NS is the number of the insect subjects that have moved to the sample side; and NC is the number of the insect subjects that have moved to the control side).
An EPI closer to 1 indicates higher attraction-aggregation activity on cockroaches.
In the examples, the attraction-aggregation activity on cockroaches was determined by a biological test using the above-described linear track olfactometer (FIG. 1).

Question: How did the EPI value turn out when `CCC1Cc2cc(C)c(C)c(O)c2C(=O)O1` (stereo not drawn) [Example 5, 3,4-dihydro-8-hydroxy-3-ethyl-6,7-dimethyl-1H-2-benzopyran-1-one] was run?
Answer: The EPI value was “about 0.5”.

Same assay, conditions: Test Example 1; even at a dose of 10^6 pg

Question: With `CCC1Cc2cc(C)c(C)c(OC)c2C(=O)O1` (stereo not drawn) [Comparative Example 1, reference compound] as the compound, how does the “attraction-aggregation activity on cockroaches” value (“attraction-aggregation activity” for short) read?
Answer: The value was “no activity”.

Same assay, conditions: Test Example 5; compounds isolated from frass in Example 24

Question: With `Cc1ccc2c(c1O)C(=O)O[C@H](C)[C@H]2C` (relative stereo) [PLD-A, (trans)-3,4-dihydro-8-hydroxy-3,4,7-trimethyl-1H-2-benzopyran-1-one] as the compound, how does the “attraction-aggregation activity” value read?
Answer: The value was “high attraction-aggregation activity”.

Question: How did the “attraction-aggregation activity” value turn out when `Cc1ccc2c(c1O)C(=O)O[C@@H](C)[C@H]2C` (relative stereo) [PLD-B, (cis)-3,4-dihydro-8-hydroxy-3,4,7-trimethyl-1H-2-benzopyran-1-one] was run?
Answer: Its value is “high attraction-aggregation activity”.

Question: For `CC[C@H]1OC(=O)c2c(ccc(C)c2O)[C@@H]1C` (relative stereo) [PLD-C, (trans)-3,4-dihydro-8-hydroxy-4,7-dimethyl-3-ethyl-1H-2-benzopyran-1-one], which “attraction-aggregation activity” value is on record?
Answer: Its value is “high attraction-aggregation activity”.

Question: Which “attraction-aggregation activity” value does the source give for `CC[C@@H]1OC(=O)c2c(ccc(C)c2O)[C@@H]1C` (relative stereo) [PLD-D, (cis)-3,4-dihydro-8-hydroxy-4,7-dimethyl-3-ethyl-1H-2-benzopyran-1-one] here?
Answer: The value was “high attraction-aggregation activity”.

Question: `CCC(C)C1Cc2c(C)cc(C)c(O)c2C(=O)O1` (stereo not drawn) [PLD-E, 3,4-dihydro-8-hydroxy-3-(1-methylpropyl)-5,7-dimethyl-1H-2-benzopyran-1-one] was tested. Which “attraction-aggregation activity” value did it give?
Answer: The value was “high attraction-aggregation activity”.

Question: With `CCCC(C)C1Cc2c(C)cc(C)c(O)c2C(=O)O1` (stereo not drawn) [PLD-F, 3,4-dihydro-8-hydroxy-3-(1-methylbutyl)-5,7-dimethyl-1H-2-benzopyran-1-one] as the compound, how does the “attraction-aggregation activity” value read?
Answer: The value was “high attraction-aggregation activity”.

Same assay, conditions: Test Examples 1 and 4; doses ranging from 10^-3 pg to 10^6 pg; 7 to 10 day-old larvae, 5 minutes

Question: How did the “attraction-aggregation activity” value turn out when `CCC1Cc2cc(C)c(C)c(O)c2C(=O)O1` (stereo not drawn) [Example 5, 3,4-dihydro-8-hydroxy-3-ethyl-6,7-dimethyl-1H-2-benzopyran-1-one] was run?
Answer: The value was “high attraction-aggregation activity”.

Question: Which “attraction-aggregation activity” value does the source give for `Cc1ccc2c(c1O)C(=O)OC1CCCC21` (stereo not drawn) [Example 17, 2,3,3a,9b-tetrahydro-6-hydroxy-7-methyl-cyclopenta[c][2]benzopyran-5(1H)-one] here?
Answer: The value was “showed attraction-aggregation activity”.

Question: How did the “attraction-aggregation activity” value turn out when `Cc1ccc2c(c1O)C(=O)OC2` [Example 18, 7-hydroxy-6-methyl-1(3H)-isobenzofuranone] was run?
Answer: The value was “showed attraction-aggregation activity”.

Question: Which “attraction-aggregation activity” value does the source give for `CC1Cc2cccc(O)c2C(=O)O1` (stereo not drawn) [Example 23, mellein] here?
Answer: Its value is “high attraction-aggregation activity”.

Same assay, conditions: Test Examples 2 and 3; doses ranging from 10^-3 pg to 10^3 pg

Question: Which “attraction-aggregation activity” value does the source give for `CCC1Cc2ccc(C)c(O)c2C(=O)O1` (stereo not drawn) [Example 3, 3,4-dihydro-8-hydroxy-3-ethyl-7-methyl-1H-2-benzopyran-1-one] here?
Answer: The value was “high attraction-aggregation activity”.

Question: For `CCC1Cc2c(C)cc(C)c(O)c2C(=O)O1` (stereo not drawn) [Example 4, 3,4-dihydro-8-hydroxy-3-ethyl-5,7-dimethyl-1H-2-benzopyran-1-one], which “attraction-aggregation activity” value is on record?
Answer: Its value is “high attraction-aggregation activity”.

Question: For `Cc1ccc2c(c1O)C(=O)OC(C)C2` (stereo not drawn) [step 1-4 of Example 1, 3,4-dihydro-8-hydroxy-3,7-dimethyl-1H-2-benzopyran-1-one], which “attraction-aggregation activity” value is on record?
Answer: Its value is “high attraction-aggregation activity”.
